What was measured:
[1] = tested on: IL-2 expression in Jurkat (E6-1) cells; test: IL-2 expression assay (down-stream MALT1 activity, Jurkat E6-1); type: cell-based; details: Homo sapiens; Jurkat E6-1, PMA/Ionomycin stimulation, 24 hours
Method: Down-stream MALT1 activity was measured by PMA/lonomycin-induced expression of IL-2 in Jurkat (E6-1) cells. Compounds were distributed in a 96 well plate, 8-point concentration series, 1:3 dilution. Jurkat clone E6-1, 4×10^4 cells/well, were added, and stimulated by PMA/lonomycin (1:500 dilution) for 24 hours at 37° C. Measurement was performed using a MesoScale Sector S600 with the Human IL-2 Tissue Culture kit according to the manufacturers recommendation.

Full-length MALT1 enzyme = target: T1, Full-length MALT1 enzyme (Homo sapiens, UniProt Q9UDY8); test: MALT1 biochemical assay; details: 2 nM enzyme, 50 μM Ac-Leu-Arg-Ser-Arg-AMC substrate
T1 construct: Full-length MALT1 enzyme at 2 nM was assayed in 50 mM HEPES
T1 sequence (Q9UDY8 1-824): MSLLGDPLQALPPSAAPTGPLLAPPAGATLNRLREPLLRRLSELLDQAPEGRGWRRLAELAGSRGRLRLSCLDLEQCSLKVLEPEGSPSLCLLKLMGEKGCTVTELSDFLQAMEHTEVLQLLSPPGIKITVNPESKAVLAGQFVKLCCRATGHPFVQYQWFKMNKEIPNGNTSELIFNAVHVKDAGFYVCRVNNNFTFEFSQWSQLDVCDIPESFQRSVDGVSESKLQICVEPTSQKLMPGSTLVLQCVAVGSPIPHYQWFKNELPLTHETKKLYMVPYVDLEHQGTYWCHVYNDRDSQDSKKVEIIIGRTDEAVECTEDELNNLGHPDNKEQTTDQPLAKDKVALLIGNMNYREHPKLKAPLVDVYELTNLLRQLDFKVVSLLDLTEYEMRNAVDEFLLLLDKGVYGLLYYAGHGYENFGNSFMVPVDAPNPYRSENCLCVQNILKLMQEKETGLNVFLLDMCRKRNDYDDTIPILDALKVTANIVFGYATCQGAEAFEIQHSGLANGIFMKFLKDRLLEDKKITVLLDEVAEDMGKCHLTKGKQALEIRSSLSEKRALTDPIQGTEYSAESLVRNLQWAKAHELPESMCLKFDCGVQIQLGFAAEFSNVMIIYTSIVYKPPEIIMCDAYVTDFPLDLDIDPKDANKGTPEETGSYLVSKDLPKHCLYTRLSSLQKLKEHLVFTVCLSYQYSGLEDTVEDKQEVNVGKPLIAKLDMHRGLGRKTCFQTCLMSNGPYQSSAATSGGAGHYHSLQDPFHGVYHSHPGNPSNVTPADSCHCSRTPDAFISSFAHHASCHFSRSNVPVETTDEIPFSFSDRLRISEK
Method: Full-length MALT1 enzyme at 2 nM was assayed in 50 mM HEPES, 100 mM NaCl, 0.9 M NaCitrate, 1 mM EDTA, pH 7.5, with 50 μM Ac-Leu-Arg-Ser-Arg-AMC as substrate. Compound was added in an 11-point concentration series from 100 μM to 1 nM in half-log dilution.
Compounds were distributed in 384 well plates by Echo550, and the assay was run with fluorescence readings at 460 nm, every 2 minutes for 60 minutes.

MALT1 = target: T2, MALT1 (Homo sapiens, UniProt Q9UDY8); test: HOIL1 cleavage assay (in-cell MALT1 protease activity, Jurkat E6-1); type: cell-based; details: Jurkat E6-1, PMA/Ionomycin-induced cleavage of HOIL1, 60 minutes
T2 construct: endogenous in cells; host or cells: Jurkat clone E6-1 (ATCC)
T2 sequence (Q9UDY8 1-824): T1 sequence (Q9UDY8 1-824)
Method: In-cell MALT1 protease activity, was measured as inhibition of PMA/lonomycin-induced cleavage of HOIL1. Day 1 0.75×10^6 cells/well were seeded in a 48 well plate. Day 2 cells were stimulated by PMA/lonomycin (1:500 dilution) with addition of vehicle or compound in a 5-point concentration series, 1:3 dilution.

IC50 (Full-length MALT1 enzyme) [nM] | IC50 (MALT1) [µM] | SMILES | IC50 [1] [µM]
– | – | CO[C@@H](C)c1c(NC(=O)Nc2ccnc(C(F)(F)F)c2)cnc2cc(Cl)nn12 [Example 3, (S)-1-(2-Chloro-7-(1-methoxyethyl)pyrazolo[1,5-a]pyrimidin-6-yl)-3-(2-(trifluoromethyl)pyridin-4-yl)urea] | 0.02
37.5 | 0.04 | CO[C@@H](C)c1c(NC(=O)Nc2cnc(-n3cc(CN)cn3)c(Cl)c2)cnc2cc(Cl)nn12 [Example 1, (S)-1-(6-(4-(aminomethyl)-1H-pyrazol-1-yl)-5-chloropyridin-3-yl)-3-(2-chloro-7-(1-methoxyethyl)pyrazolo[1,5-a]pyrimidin-6-yl)urea] | 0.03
